The values that follow are results of earlier work, collected in patent publication US20250195668A1, “BIFUNCTIONAL MOLECULES FOR SELECTIVE MODIFICATION OF TARGET SUBSTRATES” (The Broad Institute, Inc., priority 2021, published 2025).

Molecules are shown by their SMILES.

Holding throughout (settings): cited from earlier work
Data set [1] relates to NF-κB Pathway (U937 cells).
The subject of data set [2] is hWB.
The test system of data set [3] is IFNα.
For data set [4], the target named is T1, TYK JH2 (Homo sapiens, UniProt P29597).
T1 construct: TYK JH2
T1 sequence (P29597 589-875 limits assumed): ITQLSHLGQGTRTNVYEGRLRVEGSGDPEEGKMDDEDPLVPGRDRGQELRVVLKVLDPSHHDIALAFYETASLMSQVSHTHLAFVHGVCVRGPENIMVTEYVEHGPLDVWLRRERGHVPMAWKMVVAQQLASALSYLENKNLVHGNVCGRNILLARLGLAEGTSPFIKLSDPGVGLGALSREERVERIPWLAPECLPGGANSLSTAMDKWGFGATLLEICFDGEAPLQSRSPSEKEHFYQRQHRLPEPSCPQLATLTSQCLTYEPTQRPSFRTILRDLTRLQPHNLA

On to `Cc1cccc(N2N=C(C(C)(C)C)CC2c2ccc(O)cc2)c1` (stereo not shown) [1k], for which the “NF-κB reporter gene assay % inhibn at 5 μM” value in data set [1] was 73.7%.

In general, IC50 refers to the concentration that inhibits the measured activity by half. Regarding `O=C(O)c1cc(-c2cccc(F)c2)nc2ccccc12` [compound 26], the IC50 in data set [2] was 870 ± 360 nM; in data set [3], 64 ± 17 nM; in data set [4] it was 1.1 ± 0.2 nM.
